According to the supplement of paper PMC8024199:
± gives the standard deviation of the averaged measurements.

Tests used:
Assay in all cases: drug sensitivity score (DSS) (DSS score); higher = more sensitive (stronger growth inhibition); extreme values may be limits of the assay
[1] = tested on: Ba/F3 P210-BCR-ABL1 RUNX1-/mut (mouse)
Method in brief: (§1)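 A drug sensitivity score summarised each dose-response curve, with luminescence from CellTiter-Glo scaled between vehicle and positive-control wells. Values are the mean of two replicates. The cells were mouse Ba/F3 clones that were CRISPR/Cas9-edited at a target exon or were edited controls, exposed on pre-printed 384-well plates to a 528-compound library at five concentrations spanning a 10,000-fold range. Plates held 10,000 cells per well in RPMI with 10% FBS for 72 h at 37 °C and 5% CO2.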

[2] = tested on: Ba/F3 P210-BCR-ABL1 RUNX1wt/wt control (mouse)
Method in brief: as §1

[3] = tested on: Ba/F3 P210-BCR-ABL1 RUNX1-/- (mouse)
Method in brief: as §1

SMILES	drug sensitivity score [1]	drug sensitivity score [2]	drug sensitivity score [3]
CN1CCN(C2CCN(C(=O)Nc3cc(Oc4ccc(NC(=O)C5(C(=O)Nc6ccc(F)cc6)CC5)c(F)c4)ccn3)CC2)CC1 [Golvatinib]	1.8 ± 2	0	3.95 ± 2
CC(C)C[C@H](NC(=O)[C@@H](COC(C)(C)C)NC(=O)[C@H](Cc1ccc(O)cc1)NC(=O)[C@H](CO)NC(=O)[C@H](Cc1c[nH]c2ccccc12)NC(=O)[C@H](Cc1cnc[nH]1)NC(=O)[C@@H]1CCC(=O)N1)C(=O)N[C@@H](CCCNC(=N)N)C(=O)N1CCC[C@H]1C(=O)NNC(N)=O [Goserelin]	0.4	0	0
O=S(=O)(c1cccc2c(O)nccc12)N1CCCNCC1 [Hydroxyfasudil]	0.4 ± 0.57	0.2 ± 0.28	0.15 ± 0.21
COc1cc2c(cc1-c1c(C)noc1C)ncc1[nH]c(=O)n([C@H](C)c3ccccn3)c12 [I-BET151]	18.4 ± 2.3	13.9	18.6 ± 0.78
O=C(O)c1ccc(O)c2ncccc12 [IOX-1]	2.4 ± 2.8	1.75 ± 0.21	2.5 ± 2
O=C(O)CNC(=O)c1c(O)c2ccccc2n(Cc2ccccc2)c1=O [IOX-2]	0.3 ± 0.42	0	0
C=CC(=O)N1CCC[C@@H](n2nc(-c3ccc(Oc4ccccc4)cc3)c3c(N)ncnc32)C1 [Ibrutinib]	0.2 ± 0.28	0.35 ± 0.49	1.5 ± 0.71
C#Cc1cccc(Nc2ncnc3cc4c(cc23)OCCOCCOCCO4)c1 [Icotinib]	0	0	0
COc1cc(C(=O)O)ccc1NC(=O)[C@@H]1N[C@@H](CC(C)(C)C)[C@](C#N)(c2ccc(Cl)cc2F)[C@H]1c1cccc(Cl)c1F [Idasanutlin]	8.5 ± 12	5.05 ± 0.21	9.4 ± 13
CC[C@H](Nc1ncnc2[nH]cnc12)c1nc2cccc(F)c2c(=O)n1-c1ccccc1 [Idelalisib]	2.3 ± 2.5	0	4.7 ± 2.5
CCN1CCN(c2ccc(Nc3cc(N(C)C(=O)Nc4c(Cl)c(OC)cc(OC)c4Cl)ncn3)cc2)CC1 [Infigratinib]	0	0	0
CC(C)NC[C@@H](C(=O)N1CCN(c2ncnc3c2[C@H](C)C[C@H]3O)CC1)c1ccc(Cl)cc1 [Ipatasertib]	3.4 ± 2.7	0.3 ± 0.42	4.75 ± 0.92
CCC(C)n1ncn(-c2ccc(N3CCN(c4ccc(OCC5COC(Cn6cncn6)(c6ccc(Cl)cc6Cl)O5)cc4)CC3)cc2)c1=O (stereo unspecified) [Itraconazole]	4.6 ± 6.5	7.1 ± 1.3	3.8 ± 5.4
N#Cc1ccnc(N2C(=O)CC[C@H]2C(=O)N(c2cncc(F)c2)[C@H](C(=O)NC2CC(F)(F)C2)c2ccccc2Cl)c1 [Ivosidenib]	1.35 ± 1.9	0	0.3 ± 0.42
CC(C)C[C@H](NC(=O)CNC(=O)c1cc(Cl)ccc1Cl)B(O)O [Ixazomib]	8.95 ± 1.2	13.7 ± 1.4	13.5 ± 2.4
Nc1cc(COc2c(Cl)cc(C[C@H](N)C(=O)O)cc2Cl)c2oc(-c3ccccc3)nc2c1 [JPH203]	0	0	0
CC(C)NC(=O)COc1cccc(-c2nc(Nc3ccc4[nH]ncc4c3)c3ccccc3n2)c1 [KD025]	2.3 ± 1.4	0	2 ± 1.7
O=C(Nc1cnn2ccc(N3CCC[C@@H]3c3cc(F)ccc3F)nc12)N1CC[C@H](O)C1 [Larotrectinib]	0.05 ± 0.071	0.7 ± 0.71	0
Oc1ccc2c(c1)CC[C@H](c1ccccc1)[C@@H]2c1ccc(OCCN2CCCC2)cc1 [Lasofoxifene]	0.65 ± 0.92	0	0.15 ± 0.21
COc1cc2nccc(Oc3ccc(NC(=O)NC4CC4)c(Cl)c3)c2cc1C(N)=O [Lenvatinib]	0.4 ± 0.57	0	2.7 ± 1.1
Cc1ccc(F)c(NC(=O)Nc2ccc(-c3cccc4[nH]nc(N)c34)cc2)c1 [Linifanib]	0.1 ± 0.14	0.1 ± 0.14	1.1 ± 1.6
CCNCCS(=O)(=O)NC[C@@]1(c2ccccc2)SC(NC(=O)C(C)(C)C)=NN1C(=O)C(C)(C)C [Litronesib]	21.5 ± 2.4	10.9 ± 0.28	24.2 ± 1.6
Nc1nc(OCc2cc(Br)cs2)c2[nH]cnc2n1 [Lomeguatrib]	0.05 ± 0.071	0	0
NC(=O)N1CCC(CC(=O)N2CCC([C@H]3c4ncc(Br)cc4CCc4cc(Cl)cc(Br)c43)CC2)CC1 [Lonafarnib]	13.8 ± 9.8	8.2 ± 0.14	12.1 ± 17

SMILES	drug sensitivity score [1]	drug sensitivity score [2]	drug sensitivity score [3]
Cc1c(F)cc(C(=O)NC2CC2)cc1-c1ccc(C(=O)NCC(C)(C)C)cn1 [Losmapimod]	1.8 ± 2.5	0.15 ± 0.21	2.3 ± 2.4
CC[C@H](C)C(=O)O[C@H]1C[C@@H](C)C=C2C=C[C@H](C)[C@H](CC[C@@H]3C[C@@H](O)CC(=O)O3)[C@H]21 [Lovastatin]	0	0	0
CNC(=O)c1cccc2cc(Oc3ccnc4cc(OCC5(N)CC5)c(OC)cc34)ccc12 [Lucitanib]	2.95 ± 1.1	0.05 ± 0.071	3.1 ± 1.1
CCNC(=O)c1noc(-c2cc(C(C)C)c(O)cc2O)c1-c1ccc(CN2CCOCC2)cc1 [Luminespib]	28.7 ± 3.2	18.4 ± 0.57	29.4 ± 1.7
O=C(O)CC[C@H]1CC[C@@](c2cc(F)ccc2F)(S(=O)(=O)c2ccc(Cl)cc2)CC1 [MK-0752]	0	0	0
O=C(c1cccc(Cl)c1F)N1CCN(Cc2cccc(Nc3nccs3)n2)CC1 [MK-8745]	3.5 ± 0.99	0.85 ± 0.071	4.7 ± 0.14
Cn1cc(-c2cnn3c(N)c(Br)c([C@@H]4CCCNC4)nc23)cn1 [MK-8776]	5.25 ± 3.3	0	7.25 ± 0.64
Cc1cnc(-c2ccccc2C(C)C)nc1NCc1ccc(-n2ccnn2)cc1 [ML323]	3.35 ± 2.9	1.25 ± 0.071	4.4 ± 1.6
O=C(CCNC(=O)c1ccc(OC(F)(F)F)cc1)N[C@@H]1CCCc2ccccc21 [ML390]	19.6 ± 0.92	12.4 ± 0.49	18.55 ± 0.071
O=C(Nc1cccc(NC(=O)c2cccc(O)c2O)c1)c1cccc(O)c1O [MST-312]	17.1 ± 2	17.2 ± 0.42	16.6 ± 0.21
CNC(=O)[C@@H](NC(=O)[C@H](CC(C)C)[C@H](O)C(=O)NO)C(C)(C)C [Marimastat]	0.35 ± 0.49	0	0
CC(=O)O[C@]1(C(C)=O)CC[C@H]2[C@@H]3C=C(C)C4=CC(=O)CC[C@]4(C)[C@H]3CC[C@@]21C [Megestrol acetate]	0.15 ± 0.21	0	0.1 ± 0.14
CCN(CC)CCCC(C)Nc1c2ccc(Cl)cc2nc2ccc(OC)cc12 (stereo unspecified) [Mepacrine]	19.7 ± 1.4	5.4	18.6 ± 2.2
Cc1ccc(C(=O)Nc2ccc(Oc3cc4cnn(C)c4cc3-c3cn[nH]c3)c(F)c2)c(=O)n1-c1ccc(F)cc1 [Merestinib]	0	0.05 ± 0.071	0
CN(C)C(=N)NC(=N)N [Metformin]	0	0	0
CNC(=O)c1nn(C)c2c1C(C)(C)Cc1cnc(Nc3ccc(N4CCN(C)CC4)cc3)nc1-2 [Milciclib]	14.7 ± 0.85	10.8 ± 0.71	20.9 ± 0.78
CCCCCCCCCCCCCCCCOP(=O)([O-])OCC[N+](C)(C)C [Miltefosine]	5.5 ± 1.3	2 ± 1.4	7.05 ± 0.21
CCS(=O)(=O)Nc1ccc(Oc2ccc(F)cc2F)c(-c2cn(C)c(=O)c3[nH]ccc23)c1 [Mivebresib]	41 ± 2	34 ± 1.3	41.35 ± 0.21
Nc1ccccc1NC(=O)c1ccc(CNc2nccc(-c3cccnc3)n2)cc1 [Mocetinostat]	17.4 ± 2.3	17.1 ± 0.14	17.5 ± 1.6
CCNC(=O)C[C@@H]1N=C(c2ccc(Cl)cc2)c2cc(OC)ccc2-n2c(C)nnc21 [Molibresib]	18.1 ± 2	12.1 ± 0.14	18.4 ± 1.6
N#CCNC(=O)c1ccc(-c2ccnc(Nc3ccc(N4CCOCC4)cc3)n2)cc1 [Momelotinib]	5.9 ± 1.1	6.15 ± 0.64	8.45 ± 1.1
CCCN(CCC)C(=O)C1=Cc2ccc(-c3ccc(C(=O)N4CCCC4)cc3)cc2N=C(N)C1 [Motolimod]	1 ± 1.1	0	1.45 ± 0.35
FC(F)(F)c1ccc(/C=C/c2nc(COc3ccc(CCCCn4ccnn4)cc3)co2)cc1 [Mubritinib]	5.55 ± 0.49	5.95 ± 0.21	5.1 ± 0.28
